Measured values from patent US9957270B2, “Fused pyrimidine-based hydroxamate derivatives” (Agency for Science, Technology and Research, priority 2014, dated 2018).
Where a name gives a salt, the structure may show the parent alone. Read-outs that look alike come from different tables or passages of the source. Values belong to the compound of their own block, whether it stands above or below them.

Tests used:
[1] = target: T1, HDAC6 (Homo sapiens, UniProt Q9UBN7); assay: HDAC enzyme assay, recombinant HDAC6
T1 sequence (Q9UBN7 1-1215): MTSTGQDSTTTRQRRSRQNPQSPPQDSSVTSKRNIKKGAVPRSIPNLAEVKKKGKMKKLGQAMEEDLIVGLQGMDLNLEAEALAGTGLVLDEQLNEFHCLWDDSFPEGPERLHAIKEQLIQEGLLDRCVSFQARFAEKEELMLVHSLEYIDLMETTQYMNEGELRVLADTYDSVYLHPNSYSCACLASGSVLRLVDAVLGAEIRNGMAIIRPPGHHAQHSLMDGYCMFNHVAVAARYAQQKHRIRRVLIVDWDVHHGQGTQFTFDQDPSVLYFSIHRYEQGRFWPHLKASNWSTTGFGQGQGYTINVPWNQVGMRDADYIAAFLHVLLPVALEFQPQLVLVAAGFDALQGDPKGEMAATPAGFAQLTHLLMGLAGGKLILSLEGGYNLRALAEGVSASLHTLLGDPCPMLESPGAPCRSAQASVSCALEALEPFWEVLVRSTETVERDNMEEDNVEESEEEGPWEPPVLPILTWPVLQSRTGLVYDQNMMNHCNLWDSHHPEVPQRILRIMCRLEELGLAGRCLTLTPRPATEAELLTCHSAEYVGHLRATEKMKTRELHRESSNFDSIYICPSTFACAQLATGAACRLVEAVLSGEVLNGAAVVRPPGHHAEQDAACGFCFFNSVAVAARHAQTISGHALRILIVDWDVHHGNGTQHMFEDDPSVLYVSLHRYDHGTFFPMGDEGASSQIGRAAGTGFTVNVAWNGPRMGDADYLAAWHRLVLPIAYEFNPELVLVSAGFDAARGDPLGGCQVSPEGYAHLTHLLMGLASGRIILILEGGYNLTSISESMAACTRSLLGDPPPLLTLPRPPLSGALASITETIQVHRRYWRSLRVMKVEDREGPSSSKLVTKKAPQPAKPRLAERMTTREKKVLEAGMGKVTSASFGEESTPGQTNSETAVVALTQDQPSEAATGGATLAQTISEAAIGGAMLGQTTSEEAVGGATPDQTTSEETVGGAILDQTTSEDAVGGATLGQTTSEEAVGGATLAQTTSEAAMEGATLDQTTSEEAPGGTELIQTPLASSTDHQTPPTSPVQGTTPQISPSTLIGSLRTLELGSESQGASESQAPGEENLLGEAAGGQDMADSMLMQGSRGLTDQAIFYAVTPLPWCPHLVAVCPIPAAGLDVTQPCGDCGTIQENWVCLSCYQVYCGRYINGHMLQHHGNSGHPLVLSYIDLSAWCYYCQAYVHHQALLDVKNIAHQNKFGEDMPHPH

[2] = target: T2, PI3Kβ (Homo sapiens, UniProt P42338); assay: Kinase enzyme assay (ADP-Glo), PI3Kβ; assay type: biochemical; conditions: read-out: In Vitro Enzymatic IC50 PI3Kβ
T2 construct: purchased SignalChem or BPS P28-10H / 40622

[3] = target: HDAC1 (Homo sapiens, UniProt Q13547); assay: HDAC enzyme assay, recombinant HDAC1
[4] = target: T3, p110α(H1047R)/p85α (Homo sapiens, UniProt P42336, H1047R); assay: Kinase enzyme assay (ADP-Glo), PI3Kα (H1047R); assay type: biochemical; conditions: read-out: In Vitro Enzymatic IC50 PI3Kα (H1047R)
T3 construct: purchased BPS 40641

[5] = target: HDAC (HeLa nuclear extracts); assay: HDAC enzyme assay, HeLa nuclear extracts; conditions: read-out: In Vitro Enzymatic IC50 HDAC (HeLa)
[6] = target: T4, p110α(E545K)/p85α (Homo sapiens, UniProt P42336, E545K); assay: Kinase enzyme assay (ADP-Glo), PI3Kα (E545K); assay type: biochemical; conditions: read-out: In Vitro Enzymatic IC50 PI3Kα (E545K)
T4 construct: purchased SignalChem P27-15H

[7] = target: T5, PI3Kα (Homo sapiens, UniProt P42336); assay: Kinase enzyme assay (ADP-Glo), PI3Kα; assay type: biochemical; conditions: read-out: In Vitro Enzymatic IC50 PI3Kα
T5 construct: purchased Invitrogen, or BPS Bioscience Inc., or SignalChem PV4788 / 40620 / P27-18H

[8] = tested on: Raji; assay: Anti-proliferative assay (cellular IC50), Raji; conditions: Homo sapiens, read-out: In Vitro Cellular IC50 Raji
[9] = tested on: A549; assay: Anti-proliferative assay (cellular IC50), A549; conditions: Homo sapiens, A549, read-out: In Vitro Cellular IC50 A549
[10] = tested on: PLC/PRF/5; assay: cells; conditions: Homo sapiens, PLC-PRF-5, read-out: In Vitro Cellular IC50 PLC/PRF/5
[11] = tested on: MCF7; assay: Anti-proliferative assay (cellular IC50), MCF7; conditions: Homo sapiens
[12] = tested on: U138MG; assay: Anti-proliferative assay (cellular IC50), U138MG; conditions: Homo sapiens, U138-MG, read-out: In Vitro Cellular IC50 U138MG
[13] = tested on: Pfeiffer; assay: Anti-proliferative assay (cellular IC50), Pfeiffer; conditions: Homo sapiens, read-out: In Vitro Cellular IC50 Pfeiffer
[14] = tested on: SK-HEP1; assay: Anti-proliferative assay (cellular IC50), SK-HEP1; conditions: Homo sapiens, SK-HEP1, read-out: In Vitro Cellular IC50 SK-HEP1
[15] = tested on: MOLT-4; assay: Anti-proliferative assay (cellular IC50), MOLT-4; conditions: Homo sapiens
[16] = tested on: MV-4-11; assay: cells; conditions: Homo sapiens
[17] = tested on: U87 MG; assay: Anti-proliferative assay (cellular IC50), U87 MG; conditions: Homo sapiens, U-87 MG, read-out: In Vitro Cellular IC50 U87 MG
[18] = tested on: NCI-H522; assay: Anti-proliferative assay (cellular IC50), NCI-H522; conditions: Homo sapiens, NCI-H522, read-out: In Vitro Cellular IC50 NCI-H522
[19] = tested on: 4T1; assay: cells; conditions: Mus musculus, 4T1, read-out: In Vitro Cellular IC50 4T1
[20] = tested on: NCI-H460; assay: Anti-proliferative assay (cellular IC50), NCI-H460; conditions: Homo sapiens, NCI-H460, read-out: In Vitro Cellular IC50 NCI-H460
[21] = tested on: HuH-7; assay: Anti-proliferative assay (cellular IC50), HuH-7; conditions: Homo sapiens, Huh-7, read-out: In Vitro Cellular IC50 HuH-7
[22] = tested on: HCCLM3; assay: Anti-proliferative assay (cellular IC50), HCCLM3; conditions: Homo sapiens, HCCLM3, read-out: In Vitro Cellular IC50 HCCLM3
[23] = tested on: HepG2; assay: Anti-proliferative assay (cellular IC50), HepG2; conditions: Homo sapiens
[24] = tested on: HCT 116; assay: cells; conditions: Homo sapiens
[25] = tested on: Daudi; assay: Anti-proliferative assay (cellular IC50), Daudi; conditions: Homo sapiens, read-out: In Vitro Cellular IC50 Daudi
[26] = tested on: HEL9217; assay: Anti-proliferative assay (cellular IC50), HEL9217; conditions: Homo sapiens, HEL 92.1.7, read-out: In Vitro Cellular IC50 HEL9217
[27] = tested on: A-431; assay: Anti-proliferative assay (cellular IC50), A-431; conditions: Homo sapiens, A-431, read-out: In Vitro Cellular IC50 A-431
[28] = tested on: HepG2 xenograft
From the text: In FIG. 26, Efficacy in CB17 scid mice HepG2 xenograft model is shown. […] Vehicle group has BW loss due to increasing tumor burden.

[29] = tested on: HepG2 xenograft; conditions: HepG2, NCr nude mice, 98 mg/kg oral QD×5 per week, day 18

T4 sequence (P42336 whole entry E545K): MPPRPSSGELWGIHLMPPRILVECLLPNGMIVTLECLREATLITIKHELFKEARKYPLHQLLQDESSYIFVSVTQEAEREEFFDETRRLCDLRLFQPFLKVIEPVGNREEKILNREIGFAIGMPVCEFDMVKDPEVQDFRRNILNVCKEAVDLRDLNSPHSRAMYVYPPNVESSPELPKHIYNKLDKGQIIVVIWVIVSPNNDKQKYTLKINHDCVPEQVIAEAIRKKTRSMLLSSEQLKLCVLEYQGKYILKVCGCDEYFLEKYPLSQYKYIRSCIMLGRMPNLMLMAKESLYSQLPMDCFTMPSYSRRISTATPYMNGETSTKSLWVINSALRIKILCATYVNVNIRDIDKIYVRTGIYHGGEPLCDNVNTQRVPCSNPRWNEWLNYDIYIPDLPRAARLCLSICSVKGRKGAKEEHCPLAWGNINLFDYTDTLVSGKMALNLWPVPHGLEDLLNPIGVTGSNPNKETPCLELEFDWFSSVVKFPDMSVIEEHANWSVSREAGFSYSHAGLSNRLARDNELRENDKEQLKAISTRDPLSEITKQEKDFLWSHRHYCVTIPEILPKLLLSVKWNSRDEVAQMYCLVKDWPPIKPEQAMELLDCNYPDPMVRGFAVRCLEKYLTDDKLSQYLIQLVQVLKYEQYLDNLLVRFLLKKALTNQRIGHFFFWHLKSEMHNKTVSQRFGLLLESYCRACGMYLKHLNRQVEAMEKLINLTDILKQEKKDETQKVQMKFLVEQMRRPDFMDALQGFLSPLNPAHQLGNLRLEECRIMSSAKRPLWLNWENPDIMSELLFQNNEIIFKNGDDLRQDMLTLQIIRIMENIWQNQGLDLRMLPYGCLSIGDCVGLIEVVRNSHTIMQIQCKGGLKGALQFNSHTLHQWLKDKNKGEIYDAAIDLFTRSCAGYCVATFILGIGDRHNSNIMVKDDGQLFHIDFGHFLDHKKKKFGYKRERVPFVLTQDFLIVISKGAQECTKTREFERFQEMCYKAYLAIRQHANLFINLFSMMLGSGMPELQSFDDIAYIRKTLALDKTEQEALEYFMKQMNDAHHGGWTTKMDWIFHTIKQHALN
T4 sequence (P27986 whole entry partner): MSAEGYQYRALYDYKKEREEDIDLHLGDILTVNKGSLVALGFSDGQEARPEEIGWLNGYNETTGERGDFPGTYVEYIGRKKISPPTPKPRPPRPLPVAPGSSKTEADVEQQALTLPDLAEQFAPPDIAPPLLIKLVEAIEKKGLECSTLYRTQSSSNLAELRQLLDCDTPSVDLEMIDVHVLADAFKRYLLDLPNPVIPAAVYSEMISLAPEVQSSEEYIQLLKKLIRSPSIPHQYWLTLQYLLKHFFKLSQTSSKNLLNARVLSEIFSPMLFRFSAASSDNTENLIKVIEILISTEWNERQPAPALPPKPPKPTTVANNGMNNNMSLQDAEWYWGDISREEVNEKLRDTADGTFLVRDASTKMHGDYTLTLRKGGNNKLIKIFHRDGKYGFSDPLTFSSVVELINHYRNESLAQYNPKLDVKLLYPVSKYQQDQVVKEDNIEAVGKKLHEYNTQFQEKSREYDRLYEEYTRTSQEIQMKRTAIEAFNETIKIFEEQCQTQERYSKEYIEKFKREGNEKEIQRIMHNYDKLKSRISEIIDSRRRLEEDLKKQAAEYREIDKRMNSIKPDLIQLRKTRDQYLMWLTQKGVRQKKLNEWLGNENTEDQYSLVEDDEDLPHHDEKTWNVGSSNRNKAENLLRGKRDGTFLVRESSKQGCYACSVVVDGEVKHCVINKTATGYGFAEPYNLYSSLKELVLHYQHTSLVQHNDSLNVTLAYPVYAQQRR
Sequence of HDAC1 (Q13547 whole entry): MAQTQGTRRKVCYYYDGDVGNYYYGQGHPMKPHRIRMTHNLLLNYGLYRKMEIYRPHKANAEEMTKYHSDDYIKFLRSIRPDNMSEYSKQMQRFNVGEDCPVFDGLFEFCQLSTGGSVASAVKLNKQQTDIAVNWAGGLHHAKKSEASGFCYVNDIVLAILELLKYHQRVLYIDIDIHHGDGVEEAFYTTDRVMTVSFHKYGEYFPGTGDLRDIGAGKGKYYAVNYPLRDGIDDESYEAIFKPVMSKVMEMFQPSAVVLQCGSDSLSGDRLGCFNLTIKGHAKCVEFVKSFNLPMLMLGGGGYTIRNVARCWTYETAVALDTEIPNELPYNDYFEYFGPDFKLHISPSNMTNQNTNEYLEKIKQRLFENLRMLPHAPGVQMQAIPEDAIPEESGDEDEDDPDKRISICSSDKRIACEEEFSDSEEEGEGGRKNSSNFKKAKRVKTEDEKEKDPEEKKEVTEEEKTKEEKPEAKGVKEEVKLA
T5 sequence (P42336 whole entry): as the sequence (P42336 whole entry E545K) above, with K545E counted along it
T5 sequence (P27986 whole entry partner): as the sequence (P27986 whole entry partner) above
T3 sequence (P42336 whole entry H1047R): as the sequence (P42336 whole entry E545K) above, with K545E, H1047R counted along it
T3 sequence (P27986 whole entry partner): as the sequence (P27986 whole entry partner) above
T2 sequence (P42338 whole entry): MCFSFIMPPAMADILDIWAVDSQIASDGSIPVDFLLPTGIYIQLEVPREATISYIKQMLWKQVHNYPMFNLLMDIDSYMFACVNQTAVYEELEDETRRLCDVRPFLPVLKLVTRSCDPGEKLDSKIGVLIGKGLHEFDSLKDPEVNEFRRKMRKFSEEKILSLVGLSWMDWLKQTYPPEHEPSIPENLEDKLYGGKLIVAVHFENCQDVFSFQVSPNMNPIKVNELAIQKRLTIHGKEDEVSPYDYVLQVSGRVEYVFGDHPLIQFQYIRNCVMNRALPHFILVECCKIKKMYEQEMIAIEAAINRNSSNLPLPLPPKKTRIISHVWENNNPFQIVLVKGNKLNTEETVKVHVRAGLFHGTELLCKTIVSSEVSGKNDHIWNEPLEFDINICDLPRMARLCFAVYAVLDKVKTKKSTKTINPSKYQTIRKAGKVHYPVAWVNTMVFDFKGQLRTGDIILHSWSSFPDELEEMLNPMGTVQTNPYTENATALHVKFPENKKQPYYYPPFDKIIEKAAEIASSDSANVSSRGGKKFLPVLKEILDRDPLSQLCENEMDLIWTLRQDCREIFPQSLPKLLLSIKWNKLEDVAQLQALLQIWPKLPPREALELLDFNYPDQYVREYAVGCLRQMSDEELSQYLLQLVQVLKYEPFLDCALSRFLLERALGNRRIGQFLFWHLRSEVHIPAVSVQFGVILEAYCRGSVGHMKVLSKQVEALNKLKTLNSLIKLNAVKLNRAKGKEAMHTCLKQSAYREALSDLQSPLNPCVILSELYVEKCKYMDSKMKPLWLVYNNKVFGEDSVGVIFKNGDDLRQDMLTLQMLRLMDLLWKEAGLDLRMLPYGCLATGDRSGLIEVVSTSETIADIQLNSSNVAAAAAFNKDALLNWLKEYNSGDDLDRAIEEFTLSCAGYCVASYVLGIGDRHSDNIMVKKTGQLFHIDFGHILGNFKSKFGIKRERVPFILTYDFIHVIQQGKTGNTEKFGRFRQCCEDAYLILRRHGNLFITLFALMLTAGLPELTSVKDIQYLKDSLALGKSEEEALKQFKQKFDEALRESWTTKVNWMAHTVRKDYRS
T2 sequence (P27986 whole entry partner): as the sequence (P27986 whole entry partner) above

IC50 [1]: < 0.01 µM
IC50 [2]: 0.1 to 1 µM
IC50 [3]: < 0.01 µM
IC50 [4]: 0.01 to 0.1 µM
IC50 [5]: < 0.01 µM
IC50 [6]: 0.01 to 0.1 µM
IC50 [7]: 0.01 to 0.1 µM
Compound: CC(C)n1cnc2c(-c3cnc(N)nc3)nc(NCCCCCC(=O)NO)nc21 [compound 38, 6-((6-(2-aminopyrimidin-5-yl)-9-isopropyl-9H-purin-2-yl)amino)-N-hydroxyhexanamide]

IC50 [8]: < 0.5 µM
IC50 [9]: < 0.5 µM
IC50 [10]: 0.5 to 2 µM
IC50 ([11]; MCF7, 72 h, read-out: In Vitro Cellular IC50 MCF7): < 0.5 µM
IC50 ([11]; MCF7, read-out: In Vitro Cellular IC50 MCF7): < 0.5 µM
IC50 [14]: 0.5 to 2 µM
IC50 ([15]; MOLT-4, 72 h, read-out: In Vitro Cellular IC50 MOLT-4): < 0.5 µM
IC50 ([15]; MOLT-4, read-out: In Vitro Cellular IC50 MOLT-4): < 0.5 µM
IC50 ([16]; MV4-11, 72 h, read-out: In Vitro Cellular IC50 MV-4-11): < 0.5 µM
IC50 ([16]; MV4-11, read-out: In Vitro Cellular IC50 MV-4-11): < 0.5 µM
IC50 [5]: 0.01 to 0.1 µM
IC50 [17]: 0.5 to 2 µM
IC50 [18]: 0.5 to 2 µM
IC50 [19]: 0.5 to 2 µM
IC50 [20]: < 0.5 µM
IC50 [21]: < 0.5 µM
IC50 [22]: 2 to 10 µM
IC50 ([23]; HepG2, 72 h, read-out: In Vitro Cellular IC50 HepG2): 0.5 to 2 µM
IC50 ([23]; HepG2, read-out: In Vitro Cellular IC50 HepG2): 0.5 to 2 µM
IC50 ([24]; HCT-116, 72 h, read-out: In Vitro Cellular IC50 HCT 116): < 0.5 µM
IC50 ([24]; HCT-116, read-out: In Vitro Cellular IC50 HCT 116): < 0.5 µM
IC50 [25]: < 0.5 µM
IC50 [27]: 0.5 to 2 µM
Compound: O=C(CCCOc1cccc(-c2nc(N3CCOCC3)nc3c2ncn3C2CCCC2)c1)NO [compound 100, 4-(3-(9-cyclopentyl-2-morpholino-9H-purin-6-yl)phenoxy)-N-hydroxybutanamide]
IC50 [12]: 0.5 to 2 µM
IC50 [13]: < 0.5 µM
IC50 [26]: < 0.5 µM

Compound: CNC(=O)c1cc(Oc2ccc(NC(=O)Nc3ccc(Cl)c(C(F)(F)F)c3)cc2)ccn1 [sorafenib tosylate]
Tumor growth inhibition (TGI) ([28]; HepG2, CB17 scid mice, 100 mg/kg QD×5×2 then 80 mg/kg QD×5×2 oral, day 26): 98%
Tolerability ([28]; mouse, in vivo, po, 100 mg/kg): not well tolerated
Tumor growth inhibition (TGI) [29]: 71%

IC50 [1]: < 0.01 µM
IC50 [2]: 0.1 to 1 µM
IC50 [3]: < 0.01 µM
IC50 [4]: 0.01 to 0.1 µM
IC50 [5]: < 0.01 µM
IC50 [6]: 0.01 to 0.1 µM
IC50 [7]: 0.01 to 0.1 µM
Compound: CC(C)n1cnc2c(N3CCOCC3)nc(-c3ccc(OCCCCCCC(=O)NO)cc3)nc21 [compound 81, N-hydroxy-7-(4-(9-isopropyl-6-morpholino-9H-purin-2-yl)phenoxy)heptanamide]
